Results as given in paper PMC8333425, “Discovery of a dual Ras and ARF6 inhibitor from a GPCR endocytosis screen” (Nature Communications, 2021).

Experiments:
Assay in all cases: KINOMEscan kinase binding assay
[1] = target: T1, 384 kinases from the human genome (Homo sapiens, UniProt Q9Y6R4); conditions: kinase MAP3K4 (Entrez MAP3K4)
T1 construct: purchased Eurofin/DiscoverX
How it was run: (§1)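 Competition binding (KINOMEscan) across 384 human kinases with compound at 10 µM. Ligand binding was expressed relative to DMSO (100%) as the average of duplicates from one experiment. S(10) selectivity score was derived.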

[2] = target: T2, 384 kinases from the human genome (Homo sapiens, UniProt Q9BQI3); conditions: kinase EIF2AK1 (Entrez EIF2AK1)
T2 construct: purchased Eurofin/DiscoverX
How it was run: as §1

[3] = target: T3, 384 kinases from the human genome (Homo sapiens, UniProt Q86YV6); conditions: kinase MYLK4 (Entrez MYLK4)
T3 construct: purchased Eurofin/DiscoverX
How it was run: as §1

[4] = target: T4, 384 kinases from the human genome (Homo sapiens, UniProt P27448); conditions: kinase MARK3 (Entrez MARK3)
T4 construct: purchased Eurofin/DiscoverX
How it was run: as §1

[5] = target: T5, 384 kinases from the human genome (Homo sapiens, UniProt Q96NX5); conditions: kinase CAMK1G (Entrez CAMK1G)
T5 construct: purchased Eurofin/DiscoverX
How it was run: as §1

[6] = target: T6, 384 kinases from the human genome (Homo sapiens, UniProt O14936); conditions: kinase CASK (Entrez CASK)
T6 construct: purchased Eurofin/DiscoverX
T6 sequence (O14936 whole entry): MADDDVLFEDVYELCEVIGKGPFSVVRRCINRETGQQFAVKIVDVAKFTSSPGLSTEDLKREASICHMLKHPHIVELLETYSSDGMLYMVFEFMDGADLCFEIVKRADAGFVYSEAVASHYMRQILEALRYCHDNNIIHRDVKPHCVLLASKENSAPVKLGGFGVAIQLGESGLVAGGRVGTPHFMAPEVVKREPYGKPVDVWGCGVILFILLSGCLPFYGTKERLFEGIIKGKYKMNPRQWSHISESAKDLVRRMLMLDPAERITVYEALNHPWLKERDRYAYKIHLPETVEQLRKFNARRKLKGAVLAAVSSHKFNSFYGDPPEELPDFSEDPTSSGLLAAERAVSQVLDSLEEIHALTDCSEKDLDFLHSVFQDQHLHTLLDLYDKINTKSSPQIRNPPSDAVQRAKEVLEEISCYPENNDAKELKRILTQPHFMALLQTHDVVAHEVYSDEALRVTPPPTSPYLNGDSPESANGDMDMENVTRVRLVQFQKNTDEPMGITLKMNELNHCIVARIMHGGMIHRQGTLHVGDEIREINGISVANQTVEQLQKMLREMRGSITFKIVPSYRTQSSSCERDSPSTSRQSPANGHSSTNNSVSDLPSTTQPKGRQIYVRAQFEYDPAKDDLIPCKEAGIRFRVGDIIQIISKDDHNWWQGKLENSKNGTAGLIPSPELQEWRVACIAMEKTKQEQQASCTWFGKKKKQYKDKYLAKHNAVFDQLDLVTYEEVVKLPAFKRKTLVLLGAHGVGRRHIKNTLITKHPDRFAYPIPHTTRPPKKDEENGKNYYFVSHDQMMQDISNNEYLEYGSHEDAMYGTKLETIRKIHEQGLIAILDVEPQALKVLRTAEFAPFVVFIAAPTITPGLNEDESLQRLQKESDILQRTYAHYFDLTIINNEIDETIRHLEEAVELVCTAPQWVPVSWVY
How it was run: as §1

[7] = target: T7, 384 kinases from the human genome (Homo sapiens, UniProt Q9BUB5); conditions: kinase MKNK1 (Entrez MKNK1)
T7 construct: purchased Eurofin/DiscoverX
How it was run: as §1

[8] = target: T8, 384 kinases from the human genome (Homo sapiens, UniProt P54762); conditions: kinase EPHB1 (Entrez EPHB1)
T8 construct: purchased Eurofin/DiscoverX
T8 sequence (P54762 18-984): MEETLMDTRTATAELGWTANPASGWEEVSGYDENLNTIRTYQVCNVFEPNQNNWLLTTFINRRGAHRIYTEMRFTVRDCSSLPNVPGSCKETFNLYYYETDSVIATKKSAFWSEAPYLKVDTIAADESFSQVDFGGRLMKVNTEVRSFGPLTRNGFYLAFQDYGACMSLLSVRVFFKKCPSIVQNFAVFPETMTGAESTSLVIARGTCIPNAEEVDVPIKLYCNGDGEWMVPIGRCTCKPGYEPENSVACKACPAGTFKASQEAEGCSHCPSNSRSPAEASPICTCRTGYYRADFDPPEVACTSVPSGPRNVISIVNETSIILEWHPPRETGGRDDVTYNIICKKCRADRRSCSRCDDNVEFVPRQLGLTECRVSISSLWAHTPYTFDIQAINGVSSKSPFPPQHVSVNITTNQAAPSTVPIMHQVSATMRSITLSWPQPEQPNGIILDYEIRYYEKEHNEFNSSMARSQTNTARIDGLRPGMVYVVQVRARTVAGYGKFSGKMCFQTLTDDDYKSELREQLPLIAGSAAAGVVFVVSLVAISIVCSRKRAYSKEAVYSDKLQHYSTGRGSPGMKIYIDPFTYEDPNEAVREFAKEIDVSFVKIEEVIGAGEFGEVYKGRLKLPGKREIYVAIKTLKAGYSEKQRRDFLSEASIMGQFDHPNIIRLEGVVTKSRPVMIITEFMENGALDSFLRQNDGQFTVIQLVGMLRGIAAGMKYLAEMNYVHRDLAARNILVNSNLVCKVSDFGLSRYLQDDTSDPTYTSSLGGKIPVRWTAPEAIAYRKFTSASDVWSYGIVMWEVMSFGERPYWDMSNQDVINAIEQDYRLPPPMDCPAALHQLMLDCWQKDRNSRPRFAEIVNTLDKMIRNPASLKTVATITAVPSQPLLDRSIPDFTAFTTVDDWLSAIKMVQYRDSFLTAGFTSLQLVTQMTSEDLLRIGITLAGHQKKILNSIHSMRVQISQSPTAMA
How it was run: as §1

[9] = target: T9, 384 kinases from the human genome (Homo sapiens, UniProt P50613); conditions: kinase CDK7 (Entrez CDK7)
T9 construct: purchased Eurofin/DiscoverX
T9 sequence (P50613 whole entry): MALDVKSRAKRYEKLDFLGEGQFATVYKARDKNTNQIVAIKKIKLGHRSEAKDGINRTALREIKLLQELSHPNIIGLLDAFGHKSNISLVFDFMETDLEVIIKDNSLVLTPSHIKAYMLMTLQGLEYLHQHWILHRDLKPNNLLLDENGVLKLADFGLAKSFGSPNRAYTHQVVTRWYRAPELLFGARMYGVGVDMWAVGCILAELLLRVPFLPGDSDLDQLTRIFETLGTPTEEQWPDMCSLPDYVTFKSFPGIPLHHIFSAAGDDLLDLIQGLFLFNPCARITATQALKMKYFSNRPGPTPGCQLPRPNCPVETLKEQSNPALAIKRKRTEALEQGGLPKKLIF
How it was run: as §1

[10] = target: T10, 384 kinases from the human genome (Homo sapiens, UniProt O43353); conditions: kinase RIPK2 (Entrez RIPK2)
T10 construct: purchased Eurofin/DiscoverX
How it was run: as §1

[11] = target: T11, 384 kinases from the human genome (Homo sapiens, UniProt P0C1S8); conditions: kinase WEE2 (Entrez WEE2)
T11 construct: purchased Eurofin/DiscoverX
How it was run: as §1

[12] = target: T12, 384 kinases from the human genome (Homo sapiens, UniProt Q9NY57); conditions: kinase YANK2 (Entrez STK32B)
T12 construct: purchased Eurofin/DiscoverX
How it was run: as §1

[13] = target: T13, 384 kinases from the human genome (Homo sapiens, UniProt P16234); conditions: kinase PDGFRA (Entrez PDGFRA)
T13 construct: purchased Eurofin/DiscoverX
How it was run: as §1

[14] = target: T14, 384 kinases from the human genome (Homo sapiens, UniProt P78368); conditions: kinase CSNK1G2 (Entrez CSNK1G2)
T14 construct: purchased Eurofin/DiscoverX
How it was run: as §1

[15] = target: T15, 384 kinases from the human genome (Homo sapiens, UniProt Q02763); conditions: kinase TIE2 (Entrez TEK)
T15 construct: purchased Eurofin/DiscoverX
How it was run: as §1

[16] = target: T16, 384 kinases from the human genome (Homo sapiens, UniProt O14733); conditions: kinase MKK7 (Entrez MAP2K7)
T16 construct: purchased Eurofin/DiscoverX
How it was run: as §1

[17] = target: T17, 384 kinases from the human genome (Homo sapiens, UniProt O00444); conditions: kinase PLK4 (Entrez PLK4)
T17 construct: purchased Eurofin/DiscoverX
How it was run: as §1

[18] = target: T18, 384 kinases from the human genome (Homo sapiens, UniProt P54646); conditions: kinase AMPK-alpha2 (Entrez PRKAA2)
T18 construct: purchased Eurofin/DiscoverX
T18 sequence (P54646 whole entry): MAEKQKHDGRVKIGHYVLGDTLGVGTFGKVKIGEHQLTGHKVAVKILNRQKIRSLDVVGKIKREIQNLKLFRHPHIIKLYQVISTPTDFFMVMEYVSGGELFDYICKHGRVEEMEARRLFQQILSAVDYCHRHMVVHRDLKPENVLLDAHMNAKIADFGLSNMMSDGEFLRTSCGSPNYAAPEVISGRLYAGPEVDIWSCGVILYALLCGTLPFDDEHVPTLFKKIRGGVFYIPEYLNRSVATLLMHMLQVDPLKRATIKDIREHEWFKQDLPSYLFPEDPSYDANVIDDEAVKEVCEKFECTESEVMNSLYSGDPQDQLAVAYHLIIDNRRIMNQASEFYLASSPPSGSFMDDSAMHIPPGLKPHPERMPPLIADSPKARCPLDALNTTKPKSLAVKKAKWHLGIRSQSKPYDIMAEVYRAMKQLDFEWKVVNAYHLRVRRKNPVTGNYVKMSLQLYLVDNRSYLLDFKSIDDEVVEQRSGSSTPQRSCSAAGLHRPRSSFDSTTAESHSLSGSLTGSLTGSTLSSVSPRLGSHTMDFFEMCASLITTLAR
How it was run: as §1

[19] = target: T19, 384 kinases from the human genome (Homo sapiens, UniProt Q8IW41); conditions: kinase MAPKAPK5 (Entrez MAPKAPK5)
T19 construct: purchased Eurofin/DiscoverX
How it was run: as §1

[20] = target: T20, 384 kinases from the human genome (Homo sapiens, UniProt O00141); conditions: kinase SGK (Entrez SGK1)
T20 construct: purchased Eurofin/DiscoverX
How it was run: as §1

[21] = target: T21, 384 kinases from the human genome (Homo sapiens, UniProt P41743); conditions: kinase PRKCI (Entrez PRKCI)
T21 construct: purchased Eurofin/DiscoverX
T21 sequence (P41743 whole entry): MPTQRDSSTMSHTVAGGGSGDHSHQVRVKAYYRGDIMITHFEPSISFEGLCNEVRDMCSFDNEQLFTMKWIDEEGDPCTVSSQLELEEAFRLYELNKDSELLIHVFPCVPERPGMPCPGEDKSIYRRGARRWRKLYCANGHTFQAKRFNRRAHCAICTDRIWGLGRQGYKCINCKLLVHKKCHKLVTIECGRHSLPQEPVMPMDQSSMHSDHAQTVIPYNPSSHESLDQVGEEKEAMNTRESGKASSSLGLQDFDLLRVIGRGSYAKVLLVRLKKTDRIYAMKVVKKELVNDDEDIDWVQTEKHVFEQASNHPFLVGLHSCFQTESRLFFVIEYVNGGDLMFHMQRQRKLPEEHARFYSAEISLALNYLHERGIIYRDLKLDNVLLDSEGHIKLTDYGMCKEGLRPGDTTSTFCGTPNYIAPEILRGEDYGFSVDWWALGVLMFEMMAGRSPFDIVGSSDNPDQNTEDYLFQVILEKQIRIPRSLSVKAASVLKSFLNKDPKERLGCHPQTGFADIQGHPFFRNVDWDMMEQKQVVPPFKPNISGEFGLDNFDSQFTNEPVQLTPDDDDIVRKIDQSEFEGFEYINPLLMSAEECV
How it was run: as §1

[22] = target: T22, 384 kinases from the human genome (Homo sapiens, UniProt P04629); conditions: kinase TRKA (Entrez NTRK1)
T22 construct: purchased Eurofin/DiscoverX
How it was run: as §1

[23] = target: T23, 384 kinases from the human genome (Homo sapiens, UniProt P00519); conditions: kinase ABL1-phosphorylated (Entrez ABL1)
T23 construct: purchased Eurofin/DiscoverX
How it was run: as §1

[24] = target: T24, 384 kinases from the human genome (Homo sapiens, UniProt P19525); conditions: kinase PRKR (Entrez EIF2AK2)
T24 construct: purchased Eurofin/DiscoverX
How it was run: as §1

[25] = target: T25, 384 kinases from the human genome (Homo sapiens, UniProt Q9NRP7); conditions: kinase STK36 (Entrez STK36)
T25 construct: purchased Eurofin/DiscoverX
How it was run: as §1

[26] = target: T26, 384 kinases from the human genome (Homo sapiens, UniProt O75460); conditions: kinase ERN1 (Entrez ERN1)
T26 construct: purchased Eurofin/DiscoverX
How it was run: as §1

T1 sequence (Q9Y6R4 whole entry): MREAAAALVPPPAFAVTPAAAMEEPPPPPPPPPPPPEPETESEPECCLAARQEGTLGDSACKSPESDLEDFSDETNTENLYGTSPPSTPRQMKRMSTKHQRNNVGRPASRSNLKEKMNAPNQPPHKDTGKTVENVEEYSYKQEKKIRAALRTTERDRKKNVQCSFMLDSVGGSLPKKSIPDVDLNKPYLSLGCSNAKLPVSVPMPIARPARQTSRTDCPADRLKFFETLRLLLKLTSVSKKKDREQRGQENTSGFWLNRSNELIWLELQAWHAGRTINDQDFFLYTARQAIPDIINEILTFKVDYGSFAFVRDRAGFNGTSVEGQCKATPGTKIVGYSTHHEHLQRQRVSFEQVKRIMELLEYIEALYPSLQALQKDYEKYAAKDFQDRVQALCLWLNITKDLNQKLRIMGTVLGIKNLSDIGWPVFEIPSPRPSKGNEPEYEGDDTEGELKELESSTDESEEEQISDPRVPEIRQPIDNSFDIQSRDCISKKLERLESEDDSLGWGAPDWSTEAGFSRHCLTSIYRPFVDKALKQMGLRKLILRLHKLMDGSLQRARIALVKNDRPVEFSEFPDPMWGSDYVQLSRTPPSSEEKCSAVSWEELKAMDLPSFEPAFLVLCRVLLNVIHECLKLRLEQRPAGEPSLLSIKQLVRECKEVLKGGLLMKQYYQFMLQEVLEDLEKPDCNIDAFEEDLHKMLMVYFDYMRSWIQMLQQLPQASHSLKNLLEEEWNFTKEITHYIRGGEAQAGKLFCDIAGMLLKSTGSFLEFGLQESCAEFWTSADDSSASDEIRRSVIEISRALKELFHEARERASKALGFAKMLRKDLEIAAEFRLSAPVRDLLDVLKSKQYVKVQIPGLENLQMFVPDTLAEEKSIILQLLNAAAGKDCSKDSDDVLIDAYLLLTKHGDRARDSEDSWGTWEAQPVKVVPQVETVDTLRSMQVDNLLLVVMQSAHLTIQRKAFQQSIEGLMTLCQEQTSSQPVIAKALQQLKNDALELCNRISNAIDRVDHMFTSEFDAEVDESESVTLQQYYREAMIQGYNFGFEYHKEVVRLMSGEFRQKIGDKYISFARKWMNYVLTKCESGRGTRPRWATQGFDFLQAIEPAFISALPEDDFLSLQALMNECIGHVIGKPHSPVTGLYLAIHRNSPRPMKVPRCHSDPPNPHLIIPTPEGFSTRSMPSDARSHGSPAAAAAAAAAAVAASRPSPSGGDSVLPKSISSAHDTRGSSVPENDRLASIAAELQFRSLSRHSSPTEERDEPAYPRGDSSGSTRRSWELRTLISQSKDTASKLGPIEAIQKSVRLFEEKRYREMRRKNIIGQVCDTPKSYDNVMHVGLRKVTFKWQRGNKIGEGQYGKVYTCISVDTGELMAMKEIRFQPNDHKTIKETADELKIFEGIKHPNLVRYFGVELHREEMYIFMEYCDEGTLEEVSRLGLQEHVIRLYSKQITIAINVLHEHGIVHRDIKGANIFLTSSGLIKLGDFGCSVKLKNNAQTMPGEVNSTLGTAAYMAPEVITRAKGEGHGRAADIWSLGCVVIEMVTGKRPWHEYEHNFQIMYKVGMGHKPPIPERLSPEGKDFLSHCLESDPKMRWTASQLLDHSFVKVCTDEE

## CC(C)C(=O)N1CCN(c2ccc(NC(=O)c3cc4ccccc4o3)cc2Cl)CC1 [Compound 21]
[1]
  Percent Control: 73%
[2]
  Percent Control: 98%
[3]
  Percent Control: 99%
[4]
  Percent Control: 100%
[5]
  Percent Control: 100%
[6]
  Percent Control: 100%
[7]
  Percent Control: 88%
[8]
  Percent Control: 94%
[9]
  Percent Control: 83%
[10]
  Percent Control: 81%
[11]
  Percent Control: 100%
[12]
  Percent Control: 98%
[13]
  Percent Control: 72%
[14]
  Percent Control: 92%
[15]
  Percent Control: 88%
[16]
  Percent Control: 93%
[17]
  Percent Control: 89%
[18]
  Percent Control: 85%
[19]
  Percent Control: 98%
[20]
  Percent Control: 100%
[21]
  Percent Control: 100%
[22]
  Percent Control: 14%
[23]
  Percent Control: 89%
[24]
  Percent Control: 65%
[25]
  Percent Control: 88%
[26]
  Percent Control: 55%
